Values quoted from earlier work, collected in article PMC9175271, “Live-cell microscopy or fluorescence anisotropy with budded baculoviruses—which way to go with measuring ligand binding to M4 muscarinic receptors?” (Open Biology, 2022).

Target: M4 receptor
Conditions: mean of literature values, per ligand as in column ref.; ref [50], [63], [74]–[89]

Compound: CN1[C@@H]2C[C@@H](OC(=O)[C@H](CO)c3ccccc3)C[C@H]1[C@@H]1O[C@@H]12 [scopolamine]
- pKi ± s.e.m. (radioligand): 9.28 ± 0.19
